From US9814732B2, “Ulipristal acetate for prevention and treatment of breast tumors” (LABORATOIRE HRA-PHARMA, priority 2012, dated 2017)

How the values were obtained:
[1] = tested on: PR target genes (FASN, cyclin A, BCL2, ALPL); assay: qRT-PCR mRNA expression of PR target genes in HBE cells; assay type: cell-based, human
Protocol: (§1) After seeding, cells were cultured for 24 h in serum and phenol red free medium. Then treatments were carried out in a phenol red free medium containing 5% dextran-charcoal stripped serum. Cells were treated with P or DEX (100 nM), alone or in combination with UPA, RU (1 nM to 1 μM) or CDB-3877 (100 nM). Control cells were treated with ethanol, at […] 1:1000 final ethanol concentration alone as vehicle or E2 (10 nM).
(§2) Total RNA was extracted using TriZOL Reagent (Invitrogen, Cergy-Pontoise, France).
(§3) 2 μg of total RNA was subjected to reverse transcription (RT) using random primers for 1 h at 37° C. 2 μl of RT product was diluted (1:10) and subjected to quantitative PCR using sequence specific primers (300 nM) and Brillant SYBR GREEN QPCR master mix (Fermentas, Saint-Rémy-lès-Chevreuse, France) on an Mx3000P apparatus (Agilent Technologies, Massy, France). Conditions were 1 cycle at 95° C. for 10 min followed by 40 cycles at 95° C. for 30 sec, 60° C. for 1 min and 72° C. for 30 sec. Gene expression values were normalized to the housekeeping gene 36B4. Time of steroid treatment was chosen to get the optimal stimulation for a given gene. ALPL and G0S8 mRNA were analyzed after 6 h of treatment. IEX-1, FASN, and BCL2 were analyzed after 24 h of treatment. Cyclin A mRNA was analyzed after 24 h for GR responses or 48 h for PR responses.

PR = target: T1, PR (Homo sapiens, UniProt P06401); assay: MMTV-Luc reporter gene transactivation in T-47D cells; assay type: cell-based; parameters: constitutively expressed high amounts of PR (progesterone receptor); endogenous in cells; host or cells: T-47D
T1 sequence (P06401 1-933): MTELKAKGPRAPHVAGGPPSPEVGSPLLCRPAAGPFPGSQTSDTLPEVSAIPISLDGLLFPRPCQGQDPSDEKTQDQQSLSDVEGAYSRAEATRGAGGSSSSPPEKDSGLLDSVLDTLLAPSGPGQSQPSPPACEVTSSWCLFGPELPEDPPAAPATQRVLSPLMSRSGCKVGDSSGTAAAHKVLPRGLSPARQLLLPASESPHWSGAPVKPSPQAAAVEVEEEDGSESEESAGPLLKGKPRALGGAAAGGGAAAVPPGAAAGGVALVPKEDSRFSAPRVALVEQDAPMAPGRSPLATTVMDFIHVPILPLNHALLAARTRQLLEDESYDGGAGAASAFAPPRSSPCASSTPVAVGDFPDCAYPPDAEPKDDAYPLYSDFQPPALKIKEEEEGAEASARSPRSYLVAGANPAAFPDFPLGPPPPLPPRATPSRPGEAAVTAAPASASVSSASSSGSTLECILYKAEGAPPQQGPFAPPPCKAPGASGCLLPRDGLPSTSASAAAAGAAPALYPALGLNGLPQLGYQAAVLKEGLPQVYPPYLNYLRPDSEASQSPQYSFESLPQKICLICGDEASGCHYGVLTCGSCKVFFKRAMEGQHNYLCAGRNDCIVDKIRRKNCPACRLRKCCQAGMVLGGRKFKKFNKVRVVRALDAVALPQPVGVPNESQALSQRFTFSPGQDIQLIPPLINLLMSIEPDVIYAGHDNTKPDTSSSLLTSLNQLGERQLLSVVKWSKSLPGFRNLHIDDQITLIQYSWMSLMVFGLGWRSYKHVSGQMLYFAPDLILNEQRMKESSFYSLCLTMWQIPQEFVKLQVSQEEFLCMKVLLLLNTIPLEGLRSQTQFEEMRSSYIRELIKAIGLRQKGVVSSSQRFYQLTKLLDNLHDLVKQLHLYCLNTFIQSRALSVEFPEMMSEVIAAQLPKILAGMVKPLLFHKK
Protocol: T-47D and MCF-7 cell lines were respectively maintained in RPMI 1640 and in DMEM medium supplemented with 10% fetal calf serum (PAA Laboratory, Les Mureaux, France). […] Normal human breast epithelial cell (HBE) primary cultures were obtained from 20 women (aged 17-50 years). […] HBE cells were maintained in HAM F10 medium (PAA Laboratory, Les Mureaux, France) containing hydrocortisone (5 ng/ml), Triiodo-L-thyronine (6.5 ng/ml), choleratoxin (10 ng/ml), transferrin (5 mg/ml), insulin (0.016 U/ml), epidermal growth factor (10 ng/ml) (Sigma, St Quentin Fallavier, France) and 5% human serum (Etablissement Français du Sang).
After seeding, cells were cultured for 24 h in serum and phenol red free medium. Then treatments were carried out in a phenol red free medium containing 5% dextran-charcoal stripped serum. […] Control cells were treated with ethanol, at 10 1:1000 final ethanol concentration alone as vehicle or E2 (10 nM).
Cells were transfected with reporter gene plasmids containing glucocorticoid and progesterone responsive elements (GRE/PRE): 1) the MMTV-Luc is a Mouse Mammary Tumor Virus Long Terminal Repeat promoter containing one GRE/PRE palindrome and three GRE/PRE hemi-palindromes upstream to firefly luciferase gene in pFC31 vector, 2) the GRELuc contains six copies of GRE/PRE palindrome upstream to firefly luciferase gene in pBL vector. When indicated, HBE cells were transfected with human PR isoforms hPR-A and hPR-B expression plasmids constructed in POP3 vectors. Rous Sarcoma Virus promoter upstream to beta galactosidase gene (pRSV-β-Gal) was transfected in each experiment as control. Transfections were performed according to the manufacturer instructions using Lipofectamine or Lipofectamine LTX Reagents (Invitrogen, Cergy-Pontoise, France) for breast cancer cell lines or HBE cells, respectively. After 24 h of transfection, breast cancer and HBE cells were treated with hormones for 24 h or 48 h, respectively. At the end of the experiment, cells were lysed and luciferase activity was determined using the Luciferase Assay System (Promega, Charbonnières-les-bains, France). Beta galactosidase activity was assessed using the Galacto Star kit (Applied Biosystems, Courtaboeuf, France) to normalize luciferase activity data.

MCF-7 cells = assay: Tritiated thymidine incorporation (proliferation) in MCF-7 cells; assay type: cell-based, human; conditions: 48 h
Protocol: as §1
After 24 h of hormonal treatment, cells were incubated with [methyl-1 3H] thymidine (Perkin Elmer, Courtaboeuf, France) for 48 h or 20 h for KBE or cancer cells, respectively at 37° C. After incubation cells were washed twice with PBS 1× and once with 5% trichloroacetic acid (TCA). Cells were incubated in 5% TCA for 15 min at 4° C. and lysed in NaOH 0.1 N for 30 min at 37° C. The total cell lysate was added to 5 ml of Ecolite scintillation liquid (MP biomedical, Illkirch, France) and radioactivity was counted with a β-counter HIDEX 300SL (ScienceTec, Courtaboeuf, France).

[2] = Tolerability and body weight in HBCx-34 tumor-bearing nude mice; assay type: in vivo; conditions: UPA 130 mg/kg p.o., 42 days
Protocol: Mice were allocated to different groups according to their tumor volume to give homogenous mean and median tumor volume in each treatment arms. Ten mice/group, with HBCx-34 tumors between 75 and 144 mm^3, were randomized according to their tumor volume into experimental groups, and treatments (UPA 130 mg/kg, p.o. or control vehicle) were initiated 33 days post implantation of the tumor for a total duration of 42 days.
Animals were weighted biweekly during all the experimental period. Toxicity of the different treatments was determined as body weight loss.

[3] = tested on: GR target genes (IEX-1, G0S8, cyclin A, BCL2); assay: qRT-PCR mRNA expression of GR target genes in MCF-7 cells; assay type: cell-based, human
Protocol: as §1, §2, §3

[4] = P and/or UPA 100 nM, E2 10 nM, 24 h

Q: With `CC(=O)O[C@]1(C(C)=O)CCC2C3CCC4=CC(=O)CCC4=C3[C@@H](c3ccc(N(C)C)cc3)C[C@@]21C` (some centres unmarked) [UPA, 17[…]-acetoxy-11[…]-[4-N,N-dimethylamino-phenyl)-19-norpregna-4,9-diene-3,20-dione] as the molecule, how does the “BCL2 mRNA expression (PR response)” value [1, 4] read?
A: Its value is “did not reverse BCL2 mRNA down-regulation induced by P”.

Q: And the “FASN mRNA expression” value [1, 4]?
A: Its value is “able to prevent P induction of FASN mRNA expression”.

Q: What about the “cyclin A mRNA expression (PR response)” value ([1]; P and/or UPA 100 nM, E2 10 nM, 48 h) of the same molecule?
A: Its value is “reversed P-induced cyclin A mRNA down-regulation”.

Q: And the “PR agonist activity on PR target genes” value ([1]; UPA 100 nM alone)?
A: The value was “did not display any PR agonist activity”.

Q: What about the “PR antagonist response on MMTV-Luc transactivation at 1 nM” value (PR; P 100 nM, antagonist 1 nM) of the same molecule?
A: Its value is “Partial antagonist responses”.

Q: And the “PR antagonist action on MMTV-Luc transactivation” value (PR; P 100 nM, antagonist 1000 to 10 nM)?
A: The value was “potent PR antagonist actions from 1000 to 10 nM”.

Q: What about the “progestational agonist properties on reporter gene transcription” value (PR; compound alone) of the same molecule?
A: The value was “did not exhibit progestational agonist properties”.

Q: And the “cell proliferation ([3H] thymidine incorporation), compound alone” value (MCF-7 cells; 100 nM)?
A: Its value is “had no effect on proliferation”.

Q: What about the “effect of UPA on DEX-mediated proliferation change” value (MCF-7 cells; DEX 100 nM + UPA 100 nM) of the same molecule?
A: The value was “tended to prevent the weak anti-proliferative effects of DEX”.

Q: What about the body weight loss [2] of the same molecule?
A: The body weight loss was “no significant body weight loss”.

Q: What about the tolerability of treatment [2] of the same molecule?
A: Its tolerability of treatment is “well tolerated”.

Q: What about the “treatment related clinical observation” value [2] of the same molecule?
A: Its value is “No treatment related clinical observation”.

Q: And the “G0S8 mRNA expression” value ([3]; DEX and/or UPA 100 nM, 6 h, p<0.001)?
A: Its value is “anti-glucocorticoid activity was strong”.

Q: What about the “BCL2 mRNA expression (GR response)” value ([3]; DEX and/or UPA 100 nM, 24 h) of the same molecule?
A: The value was “partially antagonized this effect”.

Q: What about the “IEX-1 mRNA expression” value ([3]; DEX and/or UPA 100 nM, 24 h) of the same molecule?
A: Its value is “did not antagonize this response”.

Q: What about the “cyclin A mRNA expression (GR response)” value ([3]; DEX and/or UPA 100 nM, 24 h) of the same molecule?
A: Its value is “partially inhibited DEX effect on cyclin A mRNA expression”.

Q: What about the “glucocorticoid agonist activity on GR target genes” value ([3]; UPA 100 nM alone) of the same molecule?
A: The value was “did not display any glucocorticoid agonist activity”.
